Columns and labels:
IGF1R tyrosine kinase = target: T1, IGF1R tyrosine kinase (Homo sapiens, UniProt P08069); assay: IGF1R tyrosine kinase assay (Kinase-Glo ATP depletion or PT66/PT100 AlphaScreen); conditions: biochemical tyrosine kinase assay
T1 construct: 6×His- or GST-tagged kinase domain fragments of the corresponding RTKs expressed in baculovirus system; host or cells: baculovirus system
Procedure: (§1) To determine inhibition of several tyrosine kinases, such as IGF1R, InsR, Alk, TrkA and Jak2, kinase assays are conducted using either Kinase-Glo (Promega) or AlphaScreen (PerkinElmer) kinase assay platforms. The Kinase-Glo Luminescent Kinase Assay is a homogeneous method for measuring kinase activity by determining the amount of ATP remaining after a kinase reaction. The luminescent signal is proportional to the amount of ATP and inversely proportional to the amount of kinase activity. Tyrosine kinase PT66 AlphaScreen Assay is a high-sensitivity homogeneous, anti-phosphotyrosine antibody-mediated luminescent proximity method measuring, incorporation of phosphate in synthetic poly(Glu-Tyr) substrate. The kinase preparations used consist of purified recombinant, 6×His- or GST-tagged kinase domain fragments of the corresponding RTKs expressed in baculovirus system.
(§2) The IGF1R tyrosine kinase is assayed in Kinase-Glo ATP depletion assay using the synthetic polymer poly(Glu-Tyr, 4:1) (Sigma Chemicals) as a phosphoacceptor substrate. Each reaction mixture consists of a total volume of 10 μl and contains 40 ng of the enzyme, 5 μg of poly(Glu-Tyr), 10 μM of ATP and variable concentrations of test compounds. The mixtures also contain 50 mM Tris-HCl, pH 7.5; 5 mM MgCl2; 5 mM MnCl2; 2 mM DTT and 0.01% Tween 20. The reaction mixtures are incubated at 37° C. for 60 minutes and residual concentration of ATP in the mixture is determined by adding luciferase-containing Kinase-Glo (Promega) development reagent and counting luminescence levels using Fusion Universal Microplate Analyzer (PerkinElmer). Tested compounds are dissolved in dimethyl sulfoxide to a stock concentration of 10 mM and are typically evaluated in the assay at eight concentrations in 1 nM to 20 μM range, each in quadruplicate. […] IC50 values are derived by non-linear regression analysis using Prism 3.0 software (Graphpad Software). Other tyrosine kinases are assayed according to the same protocol after titrating amount of the enzyme to provide optimal signal-to-noise ratio and no more than 30% of total ATP consumption in the reaction conditions used.
(§3) The IGF1R tyrosine kinase is assayed in Phosphotyrosine (PT66 or PT 100) AlphaScreen chemiluminescent assay (PerkinElmer) according to the manufacturerer's recommendations. Each kinase reaction mixture consists of a total volume of 15 μl and contains 0.1-1 ng of the enzyme, 7 ng of biotinylated poly(Glu-Tyr) (Cis-Bio), 10 μM of ATP and variable concentrations of test compounds. The mixtures also contain 50 mM Tris-HCl, pH 7.5; 5 mM MgCl2; 5 mM MnCl2; 2 mM DTT and 0.01% Tween 20. The reaction mixtures are incubated at room temperature for 30 minutes. Ten (10) μl of the mixture of […] and donor beads (as supplied by the manufacturer) is then added to the reaction and the incubation is continued for an additional 60 minutes.

InsR = target: T2, InsR (Homo sapiens, UniProt P06213); assay: Tyrosine kinase assay (Kinase-Glo or AlphaScreen), InsR; conditions: biochemical tyrosine kinase assay
T2 construct: 6×His- or GST-tagged kinase domain fragments of the corresponding RTKs expressed in baculovirus system; host or cells: baculovirus system
T2 sequence (P06213 1023-1298 limits assumed, species assumed): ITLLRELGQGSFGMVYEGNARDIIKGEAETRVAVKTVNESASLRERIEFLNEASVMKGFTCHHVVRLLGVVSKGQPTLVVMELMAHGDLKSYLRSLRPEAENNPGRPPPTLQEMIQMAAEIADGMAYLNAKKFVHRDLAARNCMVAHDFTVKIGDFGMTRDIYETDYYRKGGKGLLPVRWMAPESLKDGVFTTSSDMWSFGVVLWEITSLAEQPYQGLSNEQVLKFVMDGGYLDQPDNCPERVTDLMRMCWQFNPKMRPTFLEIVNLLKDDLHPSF
Procedure: as §1, §2, §3

Alk = target: T3, Alk (Homo sapiens, UniProt Q9UM73); assay: Tyrosine kinase assay (Kinase-Glo or AlphaScreen), Alk; conditions: biochemical tyrosine kinase assay
T3 construct: 6×His- or GST-tagged kinase domain fragments of the corresponding RTKs expressed in baculovirus system; host or cells: baculovirus system
T3 sequence (Q9UM73 1116-1392 limits assumed, species assumed): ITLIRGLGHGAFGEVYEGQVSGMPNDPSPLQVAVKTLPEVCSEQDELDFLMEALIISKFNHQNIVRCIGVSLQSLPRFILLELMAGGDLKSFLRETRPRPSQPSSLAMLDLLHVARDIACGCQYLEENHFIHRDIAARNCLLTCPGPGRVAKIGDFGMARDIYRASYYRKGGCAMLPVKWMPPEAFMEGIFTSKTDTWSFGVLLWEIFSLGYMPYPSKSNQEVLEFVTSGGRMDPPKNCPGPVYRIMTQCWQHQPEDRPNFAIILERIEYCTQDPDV
Procedure: as §1, §2, §3

Jak2 = target: T4, Jak2 (Homo sapiens, UniProt O60674); assay: Tyrosine kinase assay (Kinase-Glo or AlphaScreen), Jak2; conditions: biochemical tyrosine kinase assay
T4 construct: 6×His- or GST-tagged kinase domain fragments of the corresponding RTKs expressed in baculovirus system; host or cells: baculovirus system
T4 sequence (O60674 849-1124 limits assumed, species assumed): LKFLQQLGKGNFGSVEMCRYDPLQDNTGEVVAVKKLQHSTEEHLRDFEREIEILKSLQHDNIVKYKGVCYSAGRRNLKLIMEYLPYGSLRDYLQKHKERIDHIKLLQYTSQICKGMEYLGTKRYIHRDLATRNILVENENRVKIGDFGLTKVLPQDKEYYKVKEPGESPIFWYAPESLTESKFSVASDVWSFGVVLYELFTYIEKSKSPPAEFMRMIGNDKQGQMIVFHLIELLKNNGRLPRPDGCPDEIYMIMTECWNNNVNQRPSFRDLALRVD
Procedure: as §1, §2, §3

Ba/F3 = assay: Cell proliferation inhibition, Cell Titer-Glo, Ba/F3; assay type: cell-based; conditions: Mus musculus, BaF3; cell proliferation assay, Ba/F3 cells
Text: (§4) IGF1R and other tyrosine kinase inhibitors can inhibit the proliferation of certain cancer cell lines indicating their possible therapeutic utility for treating the corresponding cancer types. Cancer cell lines of interest and control normal lines, including CHO, HEK293, BA/F3, COLO205, PC3, DU145, MCF7, Panc1, ACHN, Hep G2, H460, K562, TT, U87-MG, CAOV-3, SK-MEL5, Karpas 299 and human multiple myeloma cell lines H929, MM1s, MM1r, UTMC2, CPM2, KMS11, My5, KMS12PE, My7, JJN3, KMS18, U266, SKMM2, RPMI-8226 are plated in white, clear-bottomed 384-well cell culture plates at 2500-5000 cells per well and supplied with dilutions of tested compounds After a desired period of time (typically 3 days), the number of viable cells is quantitated by using Cell Titer-Glo Luminescent Cell Viability Assay (Promega), a cell proliferation assay system based on detection of total amount of ATP present as a measure of cell metabolic activity. The plated cells are mixed with the Cell Titer-Glo developing reagent and counted in a luminescence multiwell plate reader according to the standard manufacturer's protocol to generate IC50 curves for cell proliferation inhibition. Results are typically reported as percent of growth (% viability =(OD72h(compound)−ODday0))/(OD72h(no compound)−ODday0). Alternatively, viable cells are quantitated by using the conventional colorimetric MTT assay. The MTT assay is based on the cleavage of the yellow tetrazolium salt MTT to purple formazan crystal by metabolic active cells. The formazan is then solubilized, and the concentration determined by optical density at 570 nm. The cells plated and incubated with a compound as described above are supplemented with the solution of MTT and incubated for 2-3 hours. The growth medium is removed and dimethyl sulfoxide is added into each well to dissolve the formazan. The absorbance is measured on an ELISA plate reader with a test wavelength of 570 nm and a background subtraction wavelength of 630 nm to obtain sample signal (OD570-OD630). […] The results are reported in terms of IC50 value for a particular compound and a cell line in the standard 3-day proliferation assay using Cell Titer-Glo. […] The results are reported in terms of IC50 value for a particular compound and a cell line in the standard 3-day proliferation assay using MTT assay.

Karpas-299 = assay: Cell proliferation inhibition, Cell Titer-Glo, Karpas-299; assay type: cell-based; conditions: Homo sapiens; cell proliferation assay, Karpas-299 cells
Text: as §4

K562 = assay: Cell proliferation inhibition, Cell Titer-Glo, K562; assay type: cell-based; conditions: Homo sapiens; cell proliferation assay, K562 cells
Text: as §4

T1 sequence (P08069 999-1274 limits assumed): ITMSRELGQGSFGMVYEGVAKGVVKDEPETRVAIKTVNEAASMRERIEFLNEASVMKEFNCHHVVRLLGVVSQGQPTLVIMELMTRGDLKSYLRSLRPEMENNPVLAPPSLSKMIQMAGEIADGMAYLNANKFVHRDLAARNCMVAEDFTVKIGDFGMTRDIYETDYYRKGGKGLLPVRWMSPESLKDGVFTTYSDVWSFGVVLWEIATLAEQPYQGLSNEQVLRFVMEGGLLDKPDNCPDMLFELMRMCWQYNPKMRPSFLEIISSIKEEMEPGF

| Compound | IC50 (IGF1R tyrosine kinase) [µM] | IC50 (InsR) [µM] | IC50 (Alk) [µM] | IC50 (Jak2) [µM] | IC50 (Ba/F3) [µM] | IC50 (Karpas-299) [µM] | IC50 (K562) [µM] |
| --- | --- | --- | --- | --- | --- | --- | --- |
| Cc1ccc(OCC(O)CNc2ccnc(O)c2-c2nc3cc4c(cc3[nH]2)C(=O)N(CC(C)(C)CN(C)C)C4=O)c(C)c1 (stereo not drawn) [compound 62] | < 0.5 | 0.5 to 5 | 5 to 15 | 5 to 15 | 5 to 15 | 5 to 15 | 0.5 to 5 |
| CN1CCC(N2C(=O)c3cc4nc(-c5c(NC[C@@H](O)COc6cccc(N7CCOCC7)c6)ccnc5O)[nH]c4cc3C2=O)CC1 [compound 53] | 5 to 15 | 5 to 15 | 0.5 to 5 | 0.5 to 5 | > 15 | > 15 | > 15 |
| CN1CCC(N2C(=O)c3cc4nc(-c5c(NC[C@@H](O)COc6ccc(C#N)c(Cl)c6)ccnc5O)[nH]c4cc3C2=O)CC1 [compound 77] | 0.5 to 5 | 5 to 15 | 0.5 to 5 | 0.5 to 5 | > 15 | > 15 | > 15 |
| CN1CCC(N2C(=O)c3cc4nc(-c5c(NC[C@@H](O)COc6cccc(C(F)(F)F)c6)ccnc5O)[nH]c4cc3C2=O)CC1 [compound 73] | 0.5 to 5 | 0.5 to 5 | 5 to 15 | 0.5 to 5 | > 15 | 0.5 to 5 | 0.5 to 5 |
| COCCN1CCC(CN2C(=O)c3cc4nc(-c5c(NC[C@@H](O)c6cccc(Cl)c6)cc[nH]c5=O)[nH]c4cc3C2=O)CC1 [compound 24] | < 0.5 | < 0.5 | 0.5 to 5 | 0.5 to 5 |  |  |  |
| Cc1ccc(OC[C@H](O)CNc2ccnc(O)c2-c2nc3cc4c(cc3[nH]2)C(=O)N([C@H]2CCCN(C)C2)C4=O)c(C)c1 [compound 103] | < 0.5 | 5 to 15 | > 15 | 5 to 15 | 0.5 to 5 | 0.5 to 5 | 0.5 to 5 |
| COc1cc(C#N)ccc1OC[C@H](O)CNc1ccnc(O)c1-c1nc2cc3c(cc2[nH]1)C(=O)N(C1CCN(C)CC1)C3=O [compound 50] | 0.5 to 5 | 5 to 15 | 5 to 15 | 0.5 to 5 | > 15 | > 15 | > 15 |
| Cc1c2c(cc3[nH]c(-c4c(NC[C@@H](O)COc5c(F)ccc(Cl)c5F)cc[nH]c4=O)nc13)C(=O)N(C1CCN(C)CC1)C2=O [compound 122] | < 0.5 | 0.5 to 5 | 5 to 15 | 0.5 to 5 | > 15 | > 15 |  |
| Cc1c(Cl)cccc1OC[C@H](O)CNc1cc[nH]c(=O)c1-c1nc2cc3c(cc2[nH]1)C(=O)N(CCCN1CCCC1)C3=O [compound 115] | < 0.5 | < 0.5 | 0.5 to 5 | 0.5 to 5 | > 15 | 5 to 15 |  |
| Cc1ccc(OC[C@H](O)CNc2cc[nH]c(=O)c2-c2nc3cc4c(cc3[nH]2)C(=O)N(CCCN2CCCC2)C4=O)c(C)c1 [compound 48] | < 0.5 | < 0.5 | 5 to 15 | 0.5 to 5 | 0.5 to 5 | 0.5 to 5 |  |
| O=C1c2cc3nc(-c4c(NC[C@@H](O)c5cccc(Cl)c5)cc[nH]c4=O)[nH]c3cc2C(=O)N1CCCn1ccnc1 [compound 45] | 0.5 to 5 | 0.5 to 5 | 0.5 to 5 | 0.5 to 5 | 5 to 15 | 5 to 15 |  |
| COCCCN1C(=O)c2cc3nc(-c4c(NC[C@@H](O)COc5ccc(C)cc5C)cc[nH]c4=O)[nH]c3cc2C1=O [compound 109] | > 15 | > 15 | > 15 | > 15 | > 15 | 0.5 to 5 |  |
| CN1CCC(N2C(=O)c3cc4nc(-c5c(NCC(O)c6ccncc6)cc[nH]c5=O)[nH]c4cc3C2=O)CC1 (stereo not drawn) [compound 7] | 0.5 to 5 | 5 to 15 | > 15 | 0.5 to 5 |  |  |  |
| O=C1c2cc3nc(-c4c(NC[C@@H](O)COc5c(F)ccc(Cl)c5F)cc[nH]c4=O)[nH]c3cc2C(=O)N1CC1CCN(CCO)CC1 [compound 120] | < 0.5 | < 0.5 | 0.5 to 5 | 0.5 to 5 | 0.5 to 5 | 0.5 to 5 |  |
| O=C1c2cc3nc(-c4c(NC[C@@H](O)c5cccc(Cl)c5)cc[nH]c4=O)[nH]c3cc2C(=O)N1CCc1cccnc1 [compound 27] | > 15 | > 15 | > 15 | > 15 |  |  |  |
| O=C1CCCN1CCCN1C(=O)c2cc3nc(-c4c(NC[C@@H](O)c5cccc(Cl)c5)cc[nH]c4=O)[nH]c3cc2C1=O [compound 47] | 0.5 to 5 | 0.5 to 5 | 5 to 15 | 0.5 to 5 | 5 to 15 | 5 to 15 |  |
| Cc1c(Cl)cccc1OC[C@H](O)CNc1cc[nH]c(=O)c1-c1nc2c(C)c3c(cc2[nH]1)C(=O)N(C1CCN(C)CC1)C3=O [compound 121] | 0.5 to 5 | 0.5 to 5 | 0.5 to 5 | 0.5 to 5 | 0.5 to 5 | 5 to 15 |  |
| COc1ccc2c(ccn2C[C@H](O)CNc2cc[nH]c(=O)c2-c2nc3cc4c(cc3[nH]2)CN(C2CCN(C)CC2)C4=O)c1 [compound 170] | 5 to 15 | 0.5 to 5 | 5 to 15 | 0.5 to 5 |  |  |  |
| O=C1c2cc3nc(-c4c(NC[C@@H](O)c5cccc(Cl)c5)cc[nH]c4=O)[nH]c3cc2C(=O)N1C(CO)CO [compound 25] | < 0.5 | < 0.5 | 5 to 15 | < 0.5 |  |  |  |
| O=C1c2cc3nc(-c4c(NC[C@@H](O)c5cccc(Cl)c5)cc[nH]c4=O)[nH]c3cc2C(=O)N1CC(O)CO (stereo partly drawn) [compound 46] | < 0.5 | 0.5 to 5 | > 15 | > 15 | 5 to 15 | 5 to 15 |  |
| O=C1c2cc3nc(-c4c(NC[C@@H](O)c5cccc(Cl)c5)cc[nH]c4=O)[nH]c3cc2C(=O)N1CCc1c[nH]cn1 [compound 9] | 0.5 to 5 | 0.5 to 5 | 0.5 to 5 | 0.5 to 5 |  |  |  |
